Test results reported in the NIST ThermoML archive (doi:10.1021/je900598y).

Tests used:
[1] = 298.15 K; 101.33 kPa; Liquid
[2] = excess molar enthalpy (molar enthalpy of mixing); xn = mol fraction of the nth substance listed; conditions: 298.15 K, Liquid, Calvet calorimetry

CCCCCCCCCCCC [dodecane]
Conditions	mass density [kg/m3]
[1]	745.28

CCCCCCCCCCCCCCCC [hexadecane]
Conditions	mass density [kg/m3]
[1]	770.31

CCCCC(=O)OC(=O)CCCC [pentanoic anhydride]
Conditions	mass density [kg/m3]
[1]	939.15

CCCCC(=O)OC(=O)CCCC [pentanoic anhydride] + CCCCCCCCCCCC
[2]
Conditions	excess molar enthalpy [kcal/mol]
x1 = 0.0248	0.0469
x1 = 0.0484	0.0865
x1 = 0.0709	0.118
x1 = 0.0923	0.146
x1 = 0.1128	0.169
x1 = 0.1324	0.189
x1 = 0.1511	0.207
x1 = 0.1691	0.222
x1 = 0.1914	0.239
x1 = 0.2126	0.253
x1 = 0.2327	0.265
x1 = 0.2518	0.276
x1 = 0.2699	0.285
x1 = 0.2827	0.292
x1 = 0.3038	0.299
x1 = 0.3195	0.305
x1 = 0.3411	0.315
x1 = 0.3488	0.317
x1 = 0.3569	0.319
x1 = 0.3654	0.321
x1 = 0.3743	0.323
x1 = 0.3837	0.325
x1 = 0.3935	0.327
x1 = 0.4025	0.328
x1 = 0.4118	0.329
x1 = 0.4217	0.33
x1 = 0.432	0.331
x1 = 0.4428	0.332
x1 = 0.4542	0.333
x1 = 0.4644	0.333
x1 = 0.475	0.333
x1 = 0.4861	0.332
x1 = 0.4978	0.332
x1 = 0.51	0.331
x1 = 0.5229	0.329
x1 = 0.5342	0.327
x1 = 0.5461	0.326
x1 = 0.5585	0.323
x1 = 0.5715	0.32
x1 = 0.5851	0.317
x1 = 0.5993	0.313
x1 = 0.6122	0.309
x1 = 0.6257	0.305
x1 = 0.6398	0.3
x1 = 0.6545	0.294
x1 = 0.6699	0.287
x1 = 0.6861	0.28
x1 = 0.7003	0.272
x1 = 0.7151	0.265
x1 = 0.7305	0.256
x1 = 0.7467	0.246
x1 = 0.7635	0.235
x1 = 0.7811	0.223
x1 = 0.7967	0.211
x1 = 0.8129	0.199
x1 = 0.8298	0.185
x1 = 0.8474	0.17
x1 = 0.8657	0.153
x1 = 0.8849	0.135
x1 = 0.9022	0.117
x1 = 0.9202	0.0976
x1 = 0.9389	0.0768
x1 = 0.9584	0.0528
x1 = 0.9788	0.028

CCCCC(=O)OC(=O)CCCC [pentanoic anhydride] + CCCCCCCCCCCCCC
[2]
Conditions	excess molar enthalpy [kcal/mol]
x1 = 0.0319	0.0605
x1 = 0.0618	0.11
x1 = 0.0899	0.149
x1 = 0.1164	0.182
x1 = 0.1414	0.208
x1 = 0.165	0.232
x1 = 0.1873	0.251
x1 = 0.2126	0.271
x1 = 0.2363	0.287
x1 = 0.2587	0.3
x1 = 0.2798	0.311
x1 = 0.2997	0.32
x1 = 0.3186	0.328
x1 = 0.3364	0.335
x1 = 0.3569	0.342
x1 = 0.3714	0.35
x1 = 0.381	0.352
x1 = 0.3911	0.355
x1 = 0.402	0.357
x1 = 0.413	0.359
x1 = 0.4294	0.36
x1 = 0.4312	0.362
x1 = 0.4416	0.362
x1 = 0.4524	0.363
x1 = 0.4638	0.364
x1 = 0.4757	0.364
x1 = 0.4883	0.364
x1 = 0.5015	0.363
x1 = 0.5127	0.362
x1 = 0.5245	0.361
x1 = 0.5369	0.36
x1 = 0.5498	0.357
x1 = 0.5633	0.355
x1 = 0.5776	0.351
x1 = 0.5926	0.348
x1 = 0.6049	0.344
x1 = 0.6178	0.34
x1 = 0.6313	0.335
x1 = 0.6454	0.33
x1 = 0.6601	0.324
x1 = 0.6754	0.317
x1 = 0.6916	0.308
x1 = 0.7052	0.301
x1 = 0.7194	0.293
x1 = 0.7341	0.284
x1 = 0.7495	0.274
x1 = 0.7655	0.263
x1 = 0.7822	0.25
x1 = 0.7997	0.236
x1 = 0.8145	0.224
x1 = 0.8299	0.21
x1 = 0.8459	0.195
x1 = 0.8625	0.178
x1 = 0.8798	0.16
x1 = 0.8978	0.14
x1 = 0.9133	0.121
x1 = 0.9294	0.101
x1 = 0.9461	0.0789
x1 = 0.9634	0.0549
x1 = 0.9814	0.0287

CCCCC(=O)OC(=O)CCCC [pentanoic anhydride] + CCCCCCCCCCCCCCCC
[2]
Conditions	excess molar enthalpy [kcal/mol]
x1 = 0.0353	0.0694
x1 = 0.0683	0.125
x1 = 0.099	0.169
x1 = 0.1278	0.205
x1 = 0.1567	0.236
x1 = 0.1837	0.263
x1 = 0.209	0.284
x1 = 0.2329	0.302
x1 = 0.2553	0.317
x1 = 0.277	0.33
x1 = 0.2993	0.342
x1 = 0.3202	0.352
x1 = 0.3399	0.36
x1 = 0.3619	0.367
x1 = 0.3825	0.372
x1 = 0.4019	0.377
x1 = 0.42	0.38
x1 = 0.4371	0.382
x1 = 0.4532	0.383
x1 = 0.4705	0.384
x1 = 0.4866	0.384
x1 = 0.5018	0.383
x1 = 0.5161	0.382
x1 = 0.5296	0.381
x1 = 0.5424	0.379
x1 = 0.5564	0.377
x1 = 0.5695	0.374
x1 = 0.5819	0.371
x1 = 0.5935	0.368
x1 = 0.6046	0.365
x1 = 0.6168	0.363
x1 = 0.6292	0.358
x1 = 0.6421	0.353
x1 = 0.6556	0.348
x1 = 0.6696	0.342
x1 = 0.6842	0.335
x1 = 0.697	0.328
x1 = 0.7103	0.321
x1 = 0.7242	0.313
x1 = 0.7386	0.303
x1 = 0.7536	0.293
x1 = 0.7692	0.282
x1 = 0.7832	0.271
x1 = 0.7977	0.259
x1 = 0.8128	0.246
x1 = 0.8285	0.231
x1 = 0.8448	0.215
x1 = 0.8591	0.199
x1 = 0.8739	0.183
x1 = 0.8892	0.164
x1 = 0.905	0.145
x1 = 0.9214	0.123
x1 = 0.9361	0.103
x1 = 0.9513	0.0797
x1 = 0.967	0.0552
x1 = 0.9832	0.0282

CCCCCCCCCCCCCC [tetradecane]
Conditions	mass density [kg/m3]
[1]	760.2
